# Assay results published in patent US5583108A, “Vasonatrin peptide and analogs thereof” (Mayo Foundation for Medical Education and Research, priority 1994, dated 1996).
# Entries after “also recorded” stand apart in the source; their conditions may differ.
# Columns and labels:
# [1] = tested on: isolated normal canine blood vessels; assay: Organ chamber isometric force: relaxation of phenylephrine-contracted vessel rings; design: species or system dog; conditions: for relaxation: maximal dose (3×10^-6 M); for maximal response, percent change in tension from a contraction to phenylephrine: peptide 3 × 10^-6 M, mean ± SEM
# Method: (§1) The results obtained are expressed as the means ±SEM. In organ chamber studies, n equals the number of dogs from which rings were taken. Rings with and without endothelium were studied in parallel, and Student's t-test for unpaired observations was used to determine statistical significance among the responses of rings with and without endothelium and between responses of arteries and veins. In rat studies, the data were analyzed using ANOVA for repeated measures followed by Fisher's least significant difference test when appropriate within the group. Data between groups were analyzed by Student's unpaired t-test. Statistical significance was determined at p<0.05.
# Rings cut from femoral, saphenous, renal and pulmonary arteries and veins obtained from random source mongrel dogs (anesthetized with 30 mg/kg pentobarbital sodium intravenously) were suspended for the measurement of isometric force in organ chambers filled with aerated (95% O2 and 5% CO2) modified Krebs-Ringer bicarbonate solution (composition in mM: 118.3 NaCl, 4.7 KCl, 2.5 CaCl2, 1.2 MgSO4, 1.2 KH2 PO4, 25.0 NaHCO3, 0.026 calcium sodium EDTA, and 11.1 dextrose; control solution) at 37° C. In one-half rings, the endothelium was removed by gently rubbing the intimal surface with a cotton swab wetted with control solution. Each ring was stretched to the optimal point on its length-tension curve as determined by the tension developed to norepinephrine (3×10^-7 M) at each level of stretch. The presence of endothelium was determined at the beginning of the experiment by a relaxation to acetylcholine (10^-6 M) during a contraction to norepinephrine at optimal length. The maximal tension of each ring was determined by norepinephrine (10^-4 M). To study responses to ANP, CNP and VNP, the rings were contracted with phenylephrine (10^-6 M). These contractions averaged 30-40% of the maximal contraction to norepinephrine. The peptides were added cumulatively once the contraction had stabilized.
# The following commercially available drugs were used: acetylcholine chloride (Sigma Chemical, St. Louis, Mo.), human ANP and human CNP (Peninsula Laboratories, Belmont, Calif.), L-norepinephrine bitartrate (Sigma), phenylephrine bitartrate (Sigma). All drugs were dissolved in distilled water immediately prior to study, and the concentrations are reported as the final molar concentration (M) in the organ chamber.
# [2] = tested on: vessels pre-contracted with endothelin; assay: Relaxation of vessels pre-contracted with endothelin
# [3] = tested on: isolated vessels in congestive heart failure dogs; assay: Preliminary studies: vasorelaxation in isolated vessels of congestive heart failure dogs; design: species or system dog
# [4] = tested on: normal rats; assay: Cardiorenal actions after intravenous bolus in anesthetized normal rats; assay type: in vivo, Wistar rats; conditions: for MAP mean arterial pressure / HR heart rate / RAP right atrial pressure / UKV urine potassium excretion / UNaV urine sodium excretion / UV urine volume / UcGMPV urine cGMP volume / PcGMP plasma cGMP: mean ± SEM; for MAP mean arterial pressure: n = 4
# Method: as §1
# Experiments were conducted in accordance with the Animal Welfare Act. Wistar rats and spontaneously hypertensive rats (SHR) (400 g; Harlan Sprague-Dawley, Indianapolis, Ind.) were anesthetized with Inactin (100 mg/kg; intraperitoneal; BYK Gulden, Konstanz, Germany). The body temperature was maintained between 36° and 38° C. by a heating pad. Tracheostomy was performed; however, the animals were not artificially ventilated. Polyethylene catheters (PE-50; Becton Dickinson Co., Parsippany, N.J.) were placed in the left Jugular vein for infusions of saline and drugs, in the right jugular vein to right atrium to monitor right atrial pressure, and in the carotid artery for the collection of blood samples and to monitor mean arterial pressure. A PE-90 catheter was placed in the bladder for urine collection.
# Experiments were conducted in three groups in normal rats: ANP group (n=4), CNP group (n=4), and VNP group (n=4). VNP also was studied in SHR rats (n=4). Intravenous infusions of saline solution (0.9% NaCl) were performed (1 ml/100 gm body weight/hr) through the left jugular vein catheter. After completion of surgery, rats were allowed to stabilize for 30 minutes. In each group, a 15-min baseline period followed. After the baseline period, saline solution (0.9% NaCl) was administered in a bolus fashion (0.1 ml) and was followed by a 15-min period. After the saline period, the peptide (ANP, CNP or VNP) was administered in a bolus fashion (0.1 ml) at 5 μg/kg which was followed by a 15-min period. This was followed by a second bolus (0.1 ml) at 50 μg/kg and a 15-min period. After a 30-min washout, a 15-min recovery period followed. During each experimental period, mean arterial pressure (MAP), heart rate (HR), and right atrial pressure (RAP) were measured. At the midpoint of baseline, second bolus fashion (50 μg/kg) and recovery periods, blood was sampled for plasma cGMP. At the end of each period, urine was measured for volume (UV), and samples were stored for electrolytes and cGMP analysis.
# Blood for plasma cGMP analysis was collected into EDTA tubes, immediately placed on ice, and centrifuged at […] at 4° C. Plasma was separated and stored at -20° C. until assay. Urine for cGMP determination was heated to >90° C. before storage. Plasma and urine cGMP were determined by a specific RIA as previously described by A. L. Steiner et al., J. Hypertension, 5 (Suppl. 5) 551-553 (1987).
# [5] = normal rats, high dose (50 μg/kg) bolus
smiles,measurement,setting,value
"CC[C@H](C)[C@@H]1NC(=O)[C@H](CCCNC(=N)N)NC(=O)[C@H](CC(=O)O)NC(=O)[C@H](CC(C)C)NC(=O)[C@H](CCCCN)NC(=O)[C@H](CC(C)C)NC(=O)CNC(=O)[C@H](Cc2ccccc2)NC(=O)[C@@H](NC(=O)CNC(=O)[C@H](CCCCN)NC(=O)[C@H](CO)NC(=O)[C@H](CC(C)C)NC(=O)CN)CSSC[C@@H](C(=O)N[C@@H](CC(N)=O)C(=O)N[C@@H](CO)C(=O)N[C@@H](Cc2ccccc2)C(=O)N[C@@H](CCCNC(=N)N)C(=O)N[C@@H](Cc2ccc(O)cc2)C(=O)O)NC(=O)CNC(=O)[C@H](CC(C)C)NC(=O)CNC(=O)[C@H](CO)NC(=O)[C@H](CCSC)NC(=O)[C@H](CO)NC(=O)CNC1=O [VNP, vasonatrin peptide]",relaxation,[1]; femoral and saphenous arteries,90-100%
same,"maximal response, percent change in tension from a contraction to phenylephrine","[1]; femoral artery, with endothelium, phenylephrine 10^-6 M",91 ± 4%
same,"maximal response, percent change in tension from a contraction to phenylephrine","[1]; femoral artery, without endothelium",89 ± 5%
same,"maximal response, percent change in tension from a contraction to phenylephrine","[1]; femoral vein, with endothelium",81 ± 6%
same,"maximal response, percent change in tension from a contraction to phenylephrine","[1]; femoral vein, without endothelium",86 ± 6%
same,relaxation,[1]; femoral veins,90%
same,order of potency,[1]; pulmonary arteries,ANP=VNP>CNP
same,"maximal response, percent change in tension from a contraction to phenylephrine","[1]; pulmonary artery, with endothelium",57 ± 5%
same,"maximal response, percent change in tension from a contraction to phenylephrine","[1]; pulmonary artery, without endothelium",63 ± 7%
same,"maximal response, percent change in tension from a contraction to phenylephrine","[1]; pulmonary vein, with endothelium",71 ± 2%
same,"maximal response, percent change in tension from a contraction to phenylephrine","[1]; pulmonary vein, without endothelium",84 ± 3%
same,order of potency,[1]; pulmonary veins without endothelium,VNP>CNP>ANP
same,"maximal response, percent change in tension from a contraction to phenylephrine","[1]; renal artery, with endothelium",52 ± 4%
same,"maximal response, percent change in tension from a contraction to phenylephrine","[1]; renal artery, without endothelium",62 ± 12%
same,"maximal response, percent change in tension from a contraction to phenylephrine","[1]; renal vein, with endothelium",65 ± 6%
same,"maximal response, percent change in tension from a contraction to phenylephrine","[1]; renal vein, without endothelium",90 ± 4%
same,"maximal response, percent change in tension from a contraction to phenylephrine","[1]; saphenous artery, with endothelium",73 ± 3%
same,"maximal response, percent change in tension from a contraction to phenylephrine","[1]; saphenous artery, without endothelium",81 ± 5%
same,"maximal response, percent change in tension from a contraction to phenylephrine","[1]; saphenous vein, with endothelium",60 ± 11%
same,"maximal response, percent change in tension from a contraction to phenylephrine","[1]; saphenous vein, without endothelium",89 ± 6%
same,relaxation,[1]; saphenous veins,90%
same,potency for relaxation (order),[1]; systemic arteries,VNP>ANP≥CNP
same,"relaxation, % of the contraction to phenylephrine","[1]; systemic arteries (femoral, saphenous and renal)",50-90%
same,potency for relaxation (order),[1]; systemic veins,VNP>CNP>ANP
same,relaxation of pre-contracted vessels (in words),[2],able to relax
same,vasorelaxing actions (in words),[3],potent vasorelaxing actions
same,natriuretic action (in words),"[4]; in vivo, rat",potent natriuretic effect
same,change in MAP and RAP (in words),[4]; [5],significant decrease; also recorded: significantly decreased
same,"change in urine flow, sodium excretion, plasma cGMP and urinary cGMP volume (in words)",[4]; [5],significantly increased
same,"increase in urine flow, sodium excretion and urinary cGMP volume compared between peptides",[4]; [5],"significantly higher with VNP than those of CNP, but were less than those of ANP"
same,MAP mean arterial pressure,"[4]; normal rats, iv bolus 5 μg/kg, 15-min period",93 ± 15 mmHg
same,HR heart rate,"[4]; normal rats, iv bolus 5 μg/kg",393 ± 20 beats/min
same,RAP right atrial pressure,"[4]; normal rats, iv bolus 5 μg/kg",-3.5 ± 0.9 mmHg
same,UKV urine potassium excretion,"[4]; normal rats, iv bolus 5 μg/kg",3.3 ± 1.4 µmol/min
same,UNaV urine sodium excretion,"[4]; normal rats, iv bolus 5 μg/kg",5.3 ± 1.9 µmol/min
same,UV urine volume,"[4]; normal rats, iv bolus 5 μg/kg",32.2 ± 7.5 µL/min
same,UcGMPV urine cGMP volume,"[4]; normal rats, iv bolus 5 μg/kg",113 ± 27 pmol/min
same,HR heart rate,"[4]; normal rats, iv bolus 50 μg/kg",408 ± 25 beats/min
same,PcGMP plasma cGMP,"[4]; normal rats, iv bolus 50 μg/kg",33.3 ± 8.7 pmol/mL
same,RAP right atrial pressure,"[4]; normal rats, iv bolus 50 μg/kg",-4.3 ± 0.8 mmHg
same,UKV urine potassium excretion,"[4]; normal rats, iv bolus 50 μg/kg",11.9 ± 4.7 µmol/min
same,UNaV urine sodium excretion,"[4]; normal rats, iv bolus 50 μg/kg",22.5 ± 2.2 µmol/min
same,UV urine volume,"[4]; normal rats, iv bolus 50 μg/kg",136 ± 5.5 µL/min
same,UcGMPV urine cGMP volume,"[4]; normal rats, iv bolus 50 μg/kg",961 ± 82 pmol/min
same,MAP mean arterial pressure,"[4]; normal rats, recovery period after 30-min washout",93 ± 15 mmHg
same,HR heart rate,"[4]; normal rats, recovery period",390 ± 20 beats/min
same,PcGMP plasma cGMP,"[4]; normal rats, recovery period",4.4 ± 1.4 pmol/mL
same,RAP right atrial pressure,"[4]; normal rats, recovery period",-2.9 ± 0.9 mmHg
same,UKV urine potassium excretion,"[4]; normal rats, recovery period",1.3 ± 0.6 µmol/min
same,UNaV urine sodium excretion,"[4]; normal rats, recovery period",0.9 ± 0.3 µmol/min
same,UV urine volume,"[4]; normal rats, recovery period",8.4 ± 2.7 µL/min
same,UcGMPV urine cGMP volume,"[4]; normal rats, recovery period",88 ± 48 pmol/min
same,MAP mean arterial pressure,"[4]; normal rats, second iv bolus 50 μg/kg, 15-min period",79 ± 15 mmHg
